Laboratory results published in publication PMC11992225, “Antibacterial compounds against non-growing and intracellular bacteria” (npj Antimicrobials and Resistance, 2025).
Converted amounts (≈) assume the structure as drawn. “And” between values parts separate entries of the source, which are not always exact repeats. Identical values can stand only once. Like-named read-outs stand apart in the source and are kept apart here.

Key:
[1] = system: non-growing S. aureus DSM2569; assay: Dilution-regrowth assay (OD600, start-growth-time) on stationary-phase S. aureus; format: cell-based, Staphylococcus aureus; settings: Staphylococcus aureus, DSM2569; S. aureus; regrowth delay of non-growing bacteria, 1:4 CA-MHB pH 7.4, 24 h treatment, OD600 8 h after dilution; read-out: EC50
Procedure, shortened: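 Non-growing S. aureus was tested in a dilution-regrowth format. Cells were cultured and treated for 24 h in 1:4 diluted CA-MHB, pH 7.4, then diluted into drug-free medium, and OD600 was measured every 20 min. Start-growth-time was the time OD600 passed 0.12. Dose-response curves were fitted with a five-parameter logistic equation to derive EC50.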

P. aeruginosa DSM1117 = assay: MIC, standard microdilution assay, growing P. aeruginosa; format: cell-based, Pseudomonas aeruginosa; settings: Pseudomonas aeruginosa, DSM1117; P. aeruginosa; CA-MHB pH 7.4; read-out: MIC (μM) CA-MHB
Procedure, shortened: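 Medium: CA-MHB + 40 mM HEPES, pH 7.4 (UPEC, P. aeruginosa, S. aureus); LPM + 30 mM MES, pH 5.5 (UPEC, extra condition); TSB (S. flexneri). Microdilution format, n = 3.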

non-growing UPEC CFT073 [2] = assay: Dose-dependent killing analysis (CFU spot-plating) of stationary-phase UPEC; format: cell-based, Escherichia coli
Procedure, shortened: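 Killing assessed by CFU counts: overnight 37 °C LB agar spot plates (10 μl drops of 10-fold PBS dilutions) scored at the lowest dilution with distinct colonies. Samples were compound-treated non-growing UPEC CFT073, 200 μl per well. Performed as three biological replicates.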

non-growing UPEC CFT073 [3] = assay: Dilution-regrowth assay (screen, hit validation, dose-response) on stationary-phase UPEC; format: cell-based, Escherichia coli; settings: Escherichia coli, E. coli, regrowth delay of non-growing bacteria, 24 h treatment, OD600 6 h after 2500-fold dilution, read-out: EC50
Procedure, shortened: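 Regrowth (OD600 after 6 h, 37 °C) of diluted non-growing CFT073, following 24 h compound treatment of 24 h stationary cultures, defines activity relative to untreated control. Screen at 20 µM, validation at 20, 10, 5 µM (duplicates), dose–response in three biological replicates fitted by five-parameter logistic.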

[4] = system: non-growing P. aeruginosa DSM1117; assay: Dose-dependent killing analysis (CFU spot-plating) of stationary-phase P. aeruginosa; format: cell-based, Pseudomonas aeruginosa; settings: P. aeruginosa; for log10(CFU/ml) of treated nongrowing bacteria (single replicates): before treatment 8.887
Procedure, shortened: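 Viability by CFU: samples serially diluted 10-fold in PBS, spotted on LB agar, grown overnight at 37 °C, and colonies counted at the lowest resolvable dilution. Non-growing P. aeruginosa DSM1117 had been dosed for 24 h in 1:4 CA-MHB (pH 7.4); three biological replicates.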

## NC1CCN(c2nc3c(cc2F)c(=O)c(C(=O)O)cn3-c2ccc(F)cc2F)C1 (stereo not drawn) [Tosufloxacin]
[1]
  EC50: 328 nM
P. aeruginosa DSM1117
  MIC: 1 µM (≈ 0.404 µg/mL)
non-growing UPEC CFT073 [2]; E. coli in 1:4 CA-MHB (pH 7.4), drug concentration 0.25
  killing, average Δlog10(CFU/ml): 0.576 log10(CFU/ml)
non-growing UPEC CFT073 [2]; E. coli in 1:4 CA-MHB (pH 7.4), drug concentration 0.25, before treatment 8.977
  log10(CFU/ml) of treated nongrowing bacteria (single replicates): 8.477 log10(CFU/ml) and 8.279 log10(CFU/ml) and 8.447 log10(CFU/ml)
non-growing UPEC CFT073 [2]; E. coli in 1:4 CA-MHB (pH 7.4), drug concentration 0.5
  killing, average Δlog10(CFU/ml): 0.736 log10(CFU/ml)
non-growing UPEC CFT073 [2]; E. coli in 1:4 CA-MHB (pH 7.4), drug concentration 0.5, before treatment 8.977
  log10(CFU/ml) of treated nongrowing bacteria (single replicates): 8.602 log10(CFU/ml) and 8.041 log10(CFU/ml) and 8.079 log10(CFU/ml)
non-growing UPEC CFT073 [2]; E. coli in 1:4 CA-MHB (pH 7.4), drug concentration 1
  killing, average Δlog10(CFU/ml): 1.185 log10(CFU/ml)
non-growing UPEC CFT073 [2]; E. coli in 1:4 CA-MHB (pH 7.4), drug concentration 1, before treatment 8.977
  log10(CFU/ml) of treated nongrowing bacteria (single replicates): 8.301 log10(CFU/ml) and 7.845 log10(CFU/ml) and 7.230 log10(CFU/ml)
non-growing UPEC CFT073 [2]; E. coli in 1:4 CA-MHB (pH 7.4), drug concentration 2.5
  killing, average Δlog10(CFU/ml): 2.064 log10(CFU/ml)
non-growing UPEC CFT073 [2]; E. coli in 1:4 CA-MHB (pH 7.4), drug concentration 2.5, before treatment 8.977
  log10(CFU/ml) of treated nongrowing bacteria (single replicates): 7.041 log10(CFU/ml) and 6.699 log10(CFU/ml) and 7.000 log10(CFU/ml)
non-growing UPEC CFT073 [2]; E. coli in 1:4 CA-MHB (pH 7.4), drug concentration 5
  killing, average Δlog10(CFU/ml): 2.460 log10(CFU/ml)
non-growing UPEC CFT073 [2]; E. coli in 1:4 CA-MHB (pH 7.4), drug concentration 5, before treatment 8.977
  log10(CFU/ml) of treated nongrowing bacteria (single replicates): 6.845 log10(CFU/ml) and 6.230 log10(CFU/ml) and 6.477 log10(CFU/ml)
non-growing UPEC CFT073 [2]; E. coli in 1:4 CA-MHB (pH 7.4), drug concentration 10
  killing, average Δlog10(CFU/ml): 2.856 log10(CFU/ml)
non-growing UPEC CFT073 [2]; E. coli in 1:4 CA-MHB (pH 7.4), drug concentration 10, before treatment 8.977
  log10(CFU/ml) of treated nongrowing bacteria (single replicates): 6.778 log10(CFU/ml) and 5.380 log10(CFU/ml) and 6.204 log10(CFU/ml)
non-growing UPEC CFT073 [2]; E. coli in LPM (pH 5.5), drug concentration 0.25
  killing, average Δlog10(CFU/ml): -0.097 log10(CFU/ml)
non-growing UPEC CFT073 [2]; E. coli in LPM (pH 5.5), drug concentration 0.25, before treatment 7.350
  log10(CFU/ml) of treated nongrowing bacteria (single replicates): 7.342 log10(CFU/ml) and 7.000 log10(CFU/ml) and 8.000 log10(CFU/ml)
non-growing UPEC CFT073 [2]; E. coli in LPM (pH 5.5), drug concentration 0.5
  killing, average Δlog10(CFU/ml): 0.356 log10(CFU/ml)
non-growing UPEC CFT073 [2]; E. coli in LPM (pH 5.5), drug concentration 0.5, before treatment 7.350
  log10(CFU/ml) of treated nongrowing bacteria (single replicates): 7.079 log10(CFU/ml) and 6.000 log10(CFU/ml) and 7.903 log10(CFU/ml)
non-growing UPEC CFT073 [2]; E. coli in LPM (pH 5.5), drug concentration 1
  killing, average Δlog10(CFU/ml): 0.195 log10(CFU/ml)
non-growing UPEC CFT073 [2]; E. coli in LPM (pH 5.5), drug concentration 1, before treatment 7.350
  log10(CFU/ml) of treated nongrowing bacteria (single replicates): 7.279 log10(CFU/ml) and 6.342 log10(CFU/ml) and 7.845 log10(CFU/ml)
non-growing UPEC CFT073 [2]; E. coli in LPM (pH 5.5), drug concentration 2.5
  killing, average Δlog10(CFU/ml): 0.183 log10(CFU/ml)
non-growing UPEC CFT073 [2]; E. coli in LPM (pH 5.5), drug concentration 2.5, before treatment 7.350
  log10(CFU/ml) of treated nongrowing bacteria (single replicates): 7.079 log10(CFU/ml) and 6.519 log10(CFU/ml) and 7.903 log10(CFU/ml)
non-growing UPEC CFT073 [2]; E. coli in LPM (pH 5.5), drug concentration 5
  killing, average Δlog10(CFU/ml): 0.243 log10(CFU/ml)
non-growing UPEC CFT073 [2]; E. coli in LPM (pH 5.5), drug concentration 5, before treatment 7.350
  log10(CFU/ml) of treated nongrowing bacteria (single replicates): 7.146 log10(CFU/ml) and 6.699 log10(CFU/ml) and 7.477 log10(CFU/ml)
non-growing UPEC CFT073 [2]; E. coli in LPM (pH 5.5), drug concentration 10
  killing, average Δlog10(CFU/ml): 0.735 log10(CFU/ml)
non-growing UPEC CFT073 [2]; E. coli in LPM (pH 5.5), drug concentration 10, before treatment 7.350
  log10(CFU/ml) of treated nongrowing bacteria (single replicates): 6.591 log10(CFU/ml) and 6.255 log10(CFU/ml) and 7.000 log10(CFU/ml)
non-growing UPEC CFT073 [3]; LPM pH 5.5
  EC50: 10300 nM
non-growing UPEC CFT073 [3]; pH 7.4, 1:4 CA-MHB
  EC50: 753 nM
[4]; drug concentration 0.1
  killing, average Δlog10(CFU/ml): 0.209 log10(CFU/ml)
  log10(CFU/ml) of treated nongrowing bacteria (single replicates): 8.477 log10(CFU/ml) and 8.954 log10(CFU/ml) and 8.602 log10(CFU/ml)
[4]; drug concentration 0.5
  killing, average Δlog10(CFU/ml): 1.194 log10(CFU/ml)
  log10(CFU/ml) of treated nongrowing bacteria (single replicates): 7.477 log10(CFU/ml) and 7.903 log10(CFU/ml) and 7.699 log10(CFU/ml)
[4]; drug concentration 2.5
  killing, average Δlog10(CFU/ml): 3.719 log10(CFU/ml)
  log10(CFU/ml) of treated nongrowing bacteria (single replicates): 5.602 log10(CFU/ml) (2×) and 4.301 log10(CFU/ml)
[4]; drug concentration 10
  killing, average Δlog10(CFU/ml): 4.787 log10(CFU/ml)
  log10(CFU/ml) of treated nongrowing bacteria (single replicates): =<4 log10(CFU/ml) (2×) and 4.301 log10(CFU/ml)
